Measured values as given in article PMC9132363 (Journal of Medicinal Chemistry, 2022).

Experiments:
NRF2 in SH-SY5Y cells = assay: Subcellular fractionation and immunoblot of NRF2; format: cell-based; settings: 20 μM, 1, 2 and 4 h
Description: SH-SY5Y cells were seeded in p100 plates (1 × 10^6 cells/plate) and treated with 20 μM compound 1d. Cytosolic and nuclear fractions were prepared as described previously.[71] Briefly, cells were washed with cold PBS and harvested by centrifugation at 1100 rpm for 10 min. The cell pellet was resuspended in 3 pellet volumes of cold buffer A (20 mm HEPES, pH 7.0, 0.15 mm EDTA, 0.015 mm EGTA, 10 mm KCl, 1% Nonidet P-40, 1 mm phenylmethylsulfonyl fluoride, 20 mm NaF, 1 mm sodium pyrophosphate, 1 mm sodium orthovanadate, and 1 μg/mL leupeptin) and incubated in ice for 30 min. Then, the homogenate was centrifuged at 500g for 5 min. The supernatants were taken as the cytosolic fraction. The nuclear pellet was resuspended in 5 volumes of cold buffer B (10 mm HEPES, pH 8.0, 0.1 mm EDTA, 0.1 mm NaCl, 25% glycerol, 1 mm phenylmethylsulfonyl fluoride, 20 mm NaF, 1 mm sodium pyrophosphate, 1 mm sodium orthovanadate, and 1 μg/mL leupeptin). After centrifugation in the same conditions indicated above, the nuclei were resuspended in loading buffer containing 0.5% SDS. […]
Whole cell lysates were prepared in RIPA-buffer (25 mM Tris-HCl, pH 7.6, 150 mM NaCl, 1 mM EGTA, 1% Igepal, 1% sodium deoxycholate, 0.1% SDS, 1 mM PSMF, 1 mM Na3VO4, 1 mM NaF, 1 μg/mL aprotinin, 1 μg/mL leupeptin, and 1 μg/mL pepstatin). […] Immunoblots were analyzed as described previously.[48] […]

Keap1–/– MEFs = assay: qRT-PCR of NRF2 target genes in KEAP1-deficient MEFs; format: cell-based, mouse; settings: 20 μM, 4, 8 and 24 h
Description: (§1) Human embryonic kidney (HEK) 293T cells were grown in Dulbecco’s modified Eagle’s medium (DMEM) supplemented with 10% fetal bovine serum and 80 μg/mL gentamycin. Transient transfections were performed with calcium phosphate using reagents from Sigma. The Keap1^–/– mouse embryo fibroblasts (MEFs) and their corresponding wild-type Keap1^+/+ MEFs were kindly provided by Dr. Ken Itoh (Department of Stress Response Science, Center for Advanced Medical Science, Hirosaki University, Japan). MEFs were grown in DMEM supplemented with 10% fetal bovine serum, 1% penicillin/streptomycin, and 2 mm L-glutamine. SH-SY5Y cells were grown in DMEM and Ham’s F12 supplemented with 10% fetal bovine serum (FBS) and 1% penicillin/streptomycin. The medium was changed to serum-free DMEM without antibiotics 16 h before treatments. DMF (cat. no. 242926, Sigma-Aldrich) was used at 20 μM for 16 h.
(§2) Total RNA extraction, reverse transcription, and quantitative polymerase chain reaction (PCR) were done as detailed in previous articles.[72] Primer sequences are shown in Supporting Information Table S5. Data analysis was based on the ΔΔCT method with normalization of the raw data to housekeeping genes (Applied Biosystems). All PCRs were performed in triplicates.

[1] = target: NRF2–KEAP1 protein–protein interaction (Homo sapiens, UniProt Q14145); assay: Fluorescence polarization (FP) assay; format: binding
Sequence of NRF2–KEAP1 protein–protein interaction (Q14145 whole entry): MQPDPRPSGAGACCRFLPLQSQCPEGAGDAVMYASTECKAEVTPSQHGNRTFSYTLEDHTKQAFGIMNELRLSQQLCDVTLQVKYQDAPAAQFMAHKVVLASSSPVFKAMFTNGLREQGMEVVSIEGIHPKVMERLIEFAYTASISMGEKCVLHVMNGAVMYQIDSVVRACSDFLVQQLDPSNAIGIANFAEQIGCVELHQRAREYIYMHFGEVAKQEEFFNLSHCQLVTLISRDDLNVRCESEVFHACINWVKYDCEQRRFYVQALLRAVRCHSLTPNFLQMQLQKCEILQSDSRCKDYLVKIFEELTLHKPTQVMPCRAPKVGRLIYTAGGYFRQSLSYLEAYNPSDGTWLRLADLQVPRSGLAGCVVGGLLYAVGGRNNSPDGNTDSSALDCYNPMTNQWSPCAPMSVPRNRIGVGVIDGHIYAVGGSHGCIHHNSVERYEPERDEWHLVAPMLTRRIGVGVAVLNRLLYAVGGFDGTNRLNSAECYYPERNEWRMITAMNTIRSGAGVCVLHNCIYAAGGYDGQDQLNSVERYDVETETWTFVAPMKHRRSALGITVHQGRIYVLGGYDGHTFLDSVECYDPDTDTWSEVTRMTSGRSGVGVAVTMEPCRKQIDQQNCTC

[2] = target: T1, human serum albumin (HSA) (Homo sapiens, UniProt P02768); assay: Serum albumin binding by fluorescence quenching; settings: HSA 2 μM, λex 280 nm, λem 337 nm
T1 sequence (P02768 25-609): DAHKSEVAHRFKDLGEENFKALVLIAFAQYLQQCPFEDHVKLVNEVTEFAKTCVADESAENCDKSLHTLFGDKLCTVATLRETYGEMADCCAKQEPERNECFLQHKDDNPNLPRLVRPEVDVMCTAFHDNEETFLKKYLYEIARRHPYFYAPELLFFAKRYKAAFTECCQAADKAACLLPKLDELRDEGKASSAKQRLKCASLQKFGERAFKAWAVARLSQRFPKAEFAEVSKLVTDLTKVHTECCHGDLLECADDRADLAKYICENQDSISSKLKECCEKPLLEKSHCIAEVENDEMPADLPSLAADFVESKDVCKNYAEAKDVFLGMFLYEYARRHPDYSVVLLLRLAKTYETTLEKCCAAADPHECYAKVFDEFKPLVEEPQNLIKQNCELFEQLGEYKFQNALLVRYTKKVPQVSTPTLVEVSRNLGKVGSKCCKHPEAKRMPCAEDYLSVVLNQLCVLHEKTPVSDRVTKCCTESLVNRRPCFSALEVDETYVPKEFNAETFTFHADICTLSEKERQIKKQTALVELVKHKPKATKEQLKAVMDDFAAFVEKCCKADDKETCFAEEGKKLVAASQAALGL
Description: (§3) After each addition, the mixture was incubated at rt for 5 min, and then, the emission fluorescence spectra of HAS (λ = 280 nm) were measured using a Fluorometer Max-4P (Horiba Jobin Yvon). The data obtained were further processed using the Stern–Volmer and Scatchard models in GraphPad Prism 8.0 software.

[3] = Liver microsome stability assay; settings: human, pooled human liver microsomes, pH 7.4
Description: This assay provides information on the metabolic stability of early drug discovery compounds based on liver microsomes. […] The reaction was initiated by adding NADPH (1 mM final concentration). Aliquots of 150 μL were collected at defined time points (0, 5, 15, 30, and 60 min) and added to cold acetonitrile (150 μL) containing an internal standard (5 μg/mL warfarin) to stop the reaction and precipitate the protein. […] Data were log transformed and represented as half-life. All experiments were conducted in duplicates.

Keap1+/+ MEFs = assay: qRT-PCR of NRF2 target genes in wild-type MEFs; format: cell-based, mouse; settings: 20 μM, 4, 8 and 24 h
Description: as §1, §2

[4] = target: T1, human serum albumin (HSA); assay: biochemical
Description: as §3

ROCK-II (ROKa) = ROCK-II (ROKa) (Rattus norvegicus, UniProt Q62868); assay: ROCK inhibition studies (33P-ATP, Long S6 substrate peptide); format: biochemical
Sequence of ROCK-II (ROKa) (Q62868 2-543 limits assumed): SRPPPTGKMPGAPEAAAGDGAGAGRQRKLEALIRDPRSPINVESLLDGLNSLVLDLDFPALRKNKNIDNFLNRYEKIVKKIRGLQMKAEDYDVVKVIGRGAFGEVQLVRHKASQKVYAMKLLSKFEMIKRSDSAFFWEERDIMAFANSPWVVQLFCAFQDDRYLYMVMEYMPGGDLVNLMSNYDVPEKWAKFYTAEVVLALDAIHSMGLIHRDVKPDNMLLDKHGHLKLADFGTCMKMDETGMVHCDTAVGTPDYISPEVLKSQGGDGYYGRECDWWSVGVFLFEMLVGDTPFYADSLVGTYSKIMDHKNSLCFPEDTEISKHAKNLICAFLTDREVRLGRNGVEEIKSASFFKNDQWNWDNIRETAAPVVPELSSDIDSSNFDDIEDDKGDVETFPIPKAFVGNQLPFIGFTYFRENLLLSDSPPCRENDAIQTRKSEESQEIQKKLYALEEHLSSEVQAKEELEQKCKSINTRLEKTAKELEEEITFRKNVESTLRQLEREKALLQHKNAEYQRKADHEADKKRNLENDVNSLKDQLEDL
Description: ROCK-II (ROKa) (5–20 mU diluted in 50 mM Tris pH 7.5, 0.1 mM EGTA, 0.1% 2-mercaptoethanol, and 1 mg/mL BSA) was assayed against the Long S6 substrate peptide ([…]) in a final volume of 25.5 μL containing 50 mM Tris pH 7.5, 0.1 mM EGTA, 30 μM Long S6 substrate peptide, 10 mM magnesium acetate, and 0.02 mM [33P-g-ATP] (50–1000 cpm/pmol) and incubated for 30 min at room temperature. Assays were stopped by addition of 5 μL of 0.5 M (3%) orthophosphoric acid and then harvested onto P81 Unifilter plates with a wash buffer of 50 mM orthophosphoric acid.

- inhibition at 100 µM ([1]; 100 μM, read-out: FP % inhibition (± S.E.M.)): < 10%
- inhibition of the NRF2–KEAP1 interaction ([1]; FP and DSF, 100 μM or lower concentrations): not able to inhibit
- Stern–Volmer quenching constant KSV [2]: 1.68 × 10^5 L mol^–1
- half-life at 1 h, 8 µM [3]: 35.7 min
- Kd [4]: 1260 nM
- remaining activity at 10 µM (ROCK-II (ROKa); 0.5 h, 10 microM, supplementary CSV, read-out: ROCK2 activity @ 10microM): 14.6 ± 4.1%
- IC50 (ROCK-II (ROKa); Table 3, read-out: ROCK2 inhibition IC50): 730 nM
Structure (SMILES): O=C(CCc1ccc(O)c(O)c1)N1CCCN(S(=O)(=O)c2cccc3cnccc23)CC1 [Compound 1d, 3-(3,4-Dihydroxyphenyl)-1-(4-(isoquinolin-5-ylsulfonyl)-1,4-diazepan-1-yl)propan-1-one]
- subcellular distribution of NRF2 (NRF2 in SH-SY5Y cells): induced a significant accumulation of NRF2 in the nucleus
- expression of HMOX1 (Keap1–/– MEFs): to a lesser extent than in the wild-type cells
- expression of NQO1 (Keap1–/– MEFs): not capable of inducing
- mRNA levels of HMOX1 and NQO1 (Keap1+/+ MEFs): increased the mRNA levels
- ROCK2 inhibition potency compared with fasudil (ROCK-II (ROKa); in words): potency similar to the reference compound
